Three molecules from patent publication US8906865B2, “Treatment of inflammation and/or endotoxic shock” (ISIS Innovation Limited, priority 2007, dated 2014) can be followed below.

The assay concerns PMΦ (peritoneal macrophages). Description: Secondary chemotaxis assay towards conditioned media from treated macrophages. Format: cell-based, mouse. The following applies: relative to LPS/IFNγ conditioned medium. From the text: Given the well established role of MΦ-derived chemoattractants in the recruitment of immune cells during inflammation (Glabinski, A. R., et al., (1998). Neuroimmunomodulation 5:166-171; Huang, D. J. et al., (2001). J. Exp. Med. 193:713-726), conditioned media was used from untreated MΦ and MΦ treated with chemerin+LPS/IFNγ, C15+LPS/IFNγ and LPS/IFNγ alone in chemotaxis assays to assess how suppression of MΦ activation by chemerin and the synthetic C-terminal peptide, C15 might affect further MΦ recruitment (See FIG. 4H).
Conditioned media from macrophages treated with C140+LPS/IFNγ, C15m+LPS/IFNγ, C17m+LPS/IFNγ and LPS/IFNγ alone were used in secondary chemotaxis assays to assess the potential pathophysiological repercussions associated with suppression of macrophage activation by C140 and its C-terminal peptides.
Cells (0.5×10^6) were allowed to migrate towards chemoattractant (Chemerin peptides) or conditioned media in the bottom well of a modified Boyden chamber over 4 h. Serum free media (SFM) was used as a negative control. Filters were fixed in 4% formalin, then nuclei were stained with DAPI and visualised. Bar graphs indicate mean Migration Index (Chemoattractant % threshold area/SFM % threshold area)±SEM for each treatment group. Each bar represents at least triplicate wells and 6 pictures taken per treatment. p<0.001 ***; p<0.01 ** significance is relative to LPS/IFNγ conditioned media unless otherwise stated. AB refers to anti-murine Chemerin antibody.
Cell migration was assessed by use of transwell membranes (ChemoTX, 6-mm diameter, 8-μm pore size). Briefly, BioGEL-elicited cells were harvested and placed on transwell membranes (250 000 cells/membrane in RPMI supplemented with 25 mM Hepes and 0.1% bovine serum albumin. Cells were allowed to migrate toward Chemerin peptides (1 pM-100 nM) for 4 h. Signal transduction via G protein-coupled receptors was blocked by preincubating cells with pertussis toxin (PTX, 200 ng/ml, Sigma-Aldrich) for 30 mins before placing cells on transwell membranes. Migrated cells on the underside of membranes were fixed (3% formaldehyde) and stained with DAPI. Migration was quantified as total pixel count of DAPI stained nuclei under the confocal microscope (2 photos/membrane and a minimum of 3 replicate wells per treatment). Images were analyzed using Metamorph Offline software to determine percentage threshold areas (TA) occupied by migrated cells. Migration indices were obtained by dividing treatment TA by serum-free media TA. For secondary chemotaxis assays ChemoTx 3-mm diameter, 8-μm pore membranes were used with 50 000 cells/membrane.

“AGEDPHGYFLPGQFA (listed as Mus sp.) [C15]”: the “Macrophage chemotaxis towards conditioned media from treated + LPS/IFNγ macrophages (FIG. 5)” value is reported as “reduced chemotaxis” and the “Reduction of MΦ chemotaxis towards conditioned media from treated + LPS/IFNγ macrophages (FIG. 4H)” value is given as 55%.
As for “AGEDPHGYFLPGQFAFS (listed as Mus sp.) [C17m]”, the “Macrophage chemotaxis towards conditioned media from treated + LPS/IFNγ macrophages (FIG. 5)” value is “reduced chemotaxis”.

B1: Chemerin: 140 amino acid mouse Chemerin protein of Sequence ID no: 34 (protein, listed as Mus sp.)
chain: TVGTEPELSETQRRSLQVALEEFHKHPPVQLAFQEIGVDRAEEVLFSAGTFVRLEFKLQQTNCPKKDWKKPECTIKPNGRRRKCLACIKMDPKGKILGRIVHCPILKQGPQDPQELQCIKIAQAGEDPHGYFLPGQFAFS
On to B1, for which the “Macrophage chemotaxis towards conditioned media from treated + LPS/IFNγ macrophages (FIG. 5)” value is “reduced chemotaxis” and the “Reduction of MΦ chemotaxis towards conditioned media from treated + LPS/IFNγ macrophages (FIG. 4H)” value is 49%.
